According to PubChem BioAssay (NCI):
Where “and” joins values, the source holds several entries; their conditions need not be identical. Identical values can stand only once.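 Method: 48-hour compound exposure of cells in 96-well plates, five concentrations, linear interpolation of endpoints. GI50 marks 50% less growth. TGI: concentration producing complete growth inhibition.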

Assays:
Assay in all cases: DTP human tumour cell line panel, 48 h
[1] = test system: ACHN renal
[2] = test system: BT-549 breast
[3] = test system: K-562 leukemia
[4] = test system: MDA-MB-435
[5] = test system: MOLT-4 leukemia
[6] = test system: NCI-H522 lung
[7] = test system: NCI/ADR-RES ovarian
[8] = test system: OVCAR-8 ovarian
[9] = test system: SF-268 CNS
[10] = test system: SF-539 CNS

## Cc1ccccc1C1N=C2Oc3ccccc3C=C2C(=O)N1 (configuration not stated)
[1]
  GI50: 2.2 µM
  TGI: > 100 µM
[2]
  GI50: 7.32 µM
  TGI: > 100 µM
[3]
  GI50: 4.01 µM
  TGI: > 100 µM
[4]
  GI50: 0.244 µM
  TGI: 0.824 µM
[5]
  GI50: 19 µM
  TGI: > 100 µM
[6]
  GI50: 0.556 µM
  TGI: 3.32 µM
[7]
  GI50: 2.96 µM
  TGI: > 87.8 µM
[8]
  GI50: 10.9 µM
  TGI: > 100 µM
[9]
  GI50: 9.2 µM
  TGI: > 100 µM
[10]
  GI50: 1.75 µM
  TGI: 6.88 µM

## CC(C)c1c(C(=O)Nc2ccccc2)c(-c2ccccc2)c(-c2ccc(F)cc2)n1CC[C@@H](O)C[C@@H](O)CC(=O)O
[1]
  GI50: 6.67 µM
  TGI: > 91.2 µM
[2]
  GI50: 15.6 µM
  TGI: 41.7 µM
[3]
  GI50: 31.2 µM
  TGI: > 100 µM
[4]
  GI50: 15.1 µM
  TGI: > 100 µM
[5]
  GI50: 28.8 µM
  TGI: 99.2 µM
[6]
  GI50: 3.73 µM
  TGI: > 47.3 µM
[7]
  GI50: 40.8 µM
  TGI: > 100 µM
[8]
  GI50: 20.4 µM
  TGI: > 100 µM
[9]
  GI50: 6.64 µM
  TGI: > 100 µM
[10]
  GI50: 25.6 µM
  TGI: > 100 µM

## CNC(=S)N/N=C/CSC/C=N/NC(=S)NC
[1]
  GI50: > 100 µM
  TGI: > 100 µM
[2]
  GI50: > 100 µM
  TGI: > 100 µM
[3]
  GI50: 3.08 µM
  TGI: > 100 µM
[4]
  GI50: > 100 µM
  TGI: > 100 µM
[5]
  GI50: > 100 µM
  TGI: > 100 µM
[6]
  GI50: > 100 µM
  TGI: > 100 µM
[7]
  GI50: > 100 µM
  TGI: > 100 µM
[8]
  GI50: > 100 µM
  TGI: > 100 µM
[9]
  GI50: > 100 µM
  TGI: > 100 µM
[10]
  GI50: > 100 µM
  TGI: > 100 µM

## Cc1cc(C)c(CNC(=O)c2cc(Cl)c3c(c2C)O[C@@](C)(C2CCC(N(C)C)CC2)O3)c(=O)[nH]1 (some centres not stated)
[1]
  GI50: > 100 µM
  TGI: > 100 µM
[2]
  GI50: 42 µM
  TGI: > 100 µM
[3]
  GI50: 41.6 µM
  TGI: > 100 µM
[4]
  GI50: 58 µM
  TGI: > 100 µM
[5]
  GI50: 58.6 µM
  TGI: > 100 µM
[6]
  GI50: > 100 µM
  TGI: > 100 µM
[7]
  GI50: > 100 µM
  TGI: > 100 µM
[8]
  GI50: > 100 µM
  TGI: > 100 µM
[9]
  GI50: 60.7 µM
  TGI: > 100 µM
[10]
  GI50: 57.9 µM
  TGI: > 100 µM

## c1c[nH]c(CN2CCN(Cc3ncc[nH]3)CC2)n1
[1]
  TGI: > 100 µM
[2]
  TGI: > 100 µM
[4]
  TGI: > 100 µM
[5]
  TGI: > 100 µM
[6]
  TGI: > 100 µM
[7]
  TGI: > 100 µM
[8]
  TGI: > 100 µM
[9]
  TGI: > 100 µM
[10]
  TGI: > 100 µM

## COc1cccc(-c2cc(-c3ccc(Nc4nc(Nc5ccc(Cl)cc5)nc(Nc5ccc(Cl)cc5)n4)cc3)nc(N)c2C#N)c1
[1]
  GI50: 1.98 µM
  TGI: 4.5 µM
[2]
  GI50: 2.44 µM
  TGI: 10.9 µM
[3]
  GI50: 1.52 µM
  TGI: 5.53 µM
[4]
  GI50: 1.82 µM
  TGI: 4.24 µM
[5]
  GI50: 1.63 µM
  TGI: 4.93 µM
[6]
  GI50: 1.75 µM
  TGI: 4.62 µM
[7]
  GI50: 14.7 µM
  TGI: > 100 µM
[8]
  GI50: 3.51 µM
  TGI: > 100 µM
[9]
  GI50: 2.94 µM
  TGI: 10.2 µM
[10]
  GI50: 1.69 µM
  TGI: 4.1 µM

## Nc1nc(N)c2nc(CNc3ccc(C(=O)NC(CCC(=O)O)C(=O)O)cc3)cnc2n1 (configuration not stated)
[1]
  GI50: < 0.01 µM
  TGI: > 100 µM
[2]
  GI50: 0.399 µM and 0.213 µM
  TGI: > 100 µM
[3]
  GI50: < 0.01 µM
  TGI: > 100 µM
[4]
  GI50: < 0.01 µM
  TGI: > 100 µM
[5]
  GI50: 0.0375 µM and < 0.0131 µM
  TGI: > 100 µM
[6]
  GI50: 0.0446 µM and 0.0815 µM
  TGI: > 100 µM
[7]
  GI50: < 0.01 µM
  TGI: > 100 µM
[8]
  GI50: < 0.01 µM
  TGI: > 100 µM
[9]
  GI50: 0.02 µM and < 0.01 µM
  TGI: > 100 µM
[10]
  GI50: 0.0204 µM and < 0.01 µM
  TGI: > 100 µM

## O=C1Nc2ccc(I)cc2/C1=C/c1cc(Br)c(O)c(Br)c1
[1]
  GI50: > 19.8 µM and 21.8 µM
  TGI: > 85.8 µM
[2]
  GI50: > 17.9 µM and 8.07 µM
  TGI: > 25 µM and 32.7 µM
[3]
  GI50: > 51.9 µM
  TGI: > 100 µM
[4]
  GI50: 15 µM and 13.2 µM
  TGI: > 100 µM
[5]
  GI50: > 60.1 µM
  TGI: > 100 µM
[6]
  GI50: 16.2 µM and 16.5 µM
  TGI: > 25 µM and 42.3 µM
[7]
  GI50: > 21.8 µM and 28.2 µM
  TGI: > 100 µM
[8]
  GI50: > 25 µM and 23.8 µM
  TGI: > 96.5 µM
[9]
  GI50: > 21.9 µM and 18.2 µM
  TGI: > 25 µM and 68.8 µM
[10]
  GI50: > 20.2 µM and 14.1 µM
  TGI: > 25 µM and 43.8 µM

## OC1(c2ccccc2)c2ccccc2N(c2ccccc2)c2ccc(Cl)cc21 (configuration not stated)
[1]
  GI50: 0.367 µM
  TGI: 1.37 µM
[2]
  GI50: 0.367 µM
  TGI: 1.29 µM
[3]
  GI50: 0.18 µM
  TGI: 1.14 µM
[4]
  GI50: 0.213 µM
  TGI: 0.631 µM
[5]
  GI50: 0.294 µM
  TGI: 1.25 µM
[6]
  GI50: 0.161 µM
  TGI: 0.433 µM
[7]
  GI50: 1.55 µM
  TGI: 6.23 µM
[8]
  GI50: 0.287 µM
  TGI: 1.25 µM
[9]
  GI50: 0.311 µM
  TGI: 1.14 µM
[10]
  GI50: 0.236 µM
  TGI: 0.683 µM

## CCCN1CCCC(c2ccc(Nc3nc(Nc4cc(F)ccc4C(N)=O)c4cc[nH]c4n3)c(OC)c2)C1 (configuration not stated)
[1]
  GI50: 2.92 µM
  TGI: 6.23 µM
[2]
  GI50: 3.74 µM
  TGI: 7.4 µM
[3]
  GI50: 0.825 µM
  TGI: 5.59 µM
[4]
  GI50: 1.04 µM
  TGI: 5.39 µM
[5]
  GI50: 3.8 µM
  TGI: 11.1 µM
[6]
  GI50: 2.85 µM
  TGI: 6.01 µM
[7]
  GI50: 3.57 µM
  TGI: 9.92 µM
[8]
  GI50: 2.47 µM
  TGI: 5.92 µM
[9]
  GI50: 2.84 µM
  TGI: 6.07 µM
[10]
  GI50: 2.14 µM
  TGI: 6.05 µM

## C=C1C(=O)O[C@H]2[C@H]1CC/C(COC(=O)NCc1ccc(Cn3c(=O)sn(CCCI)c3=O)cc1)=C\CC[C@@]1(C)O[C@@H]21
[1]
  GI50: 1.7 µM
  TGI: 3.19 µM
[2]
  GI50: 1.37 µM
  TGI: 2.84 µM
[3]
  GI50: 0.342 µM
  TGI: > 100 µM
[4]
  GI50: 1.68 µM
  TGI: 3.3 µM
[5]
  GI50: 0.294 µM
  TGI: 3.19 µM
[6]
  GI50: 1.07 µM
  TGI: 2.39 µM
[7]
  GI50: 28.1 µM
  TGI: > 100 µM
[8]
  GI50: 3.04 µM
  TGI: 9.87 µM
[9]
  GI50: 2.54 µM
  TGI: 7.41 µM
[10]
  GI50: 1.71 µM
  TGI: 3.34 µM

## Fc1cnccc1-c1nc2ccc3[nH]ncc3c2c2c1CCCC2
[1]
  GI50: 0.466 µM
  TGI: > 100 µM
[2]
  GI50: 1.28 µM
  TGI: 7.74 µM
[3]
  GI50: 2.63 µM
  TGI: > 100 µM
[4]
  GI50: 1.25 µM
  TGI: > 100 µM
[6]
  GI50: 1.31 µM
  TGI: 8.76 µM
[7]
  GI50: 2.41 µM
  TGI: > 100 µM
[8]
  GI50: 2.1 µM
  TGI: > 100 µM
[9]
  GI50: 1.99 µM
  TGI: 9.82 µM
[10]
  GI50: 1.29 µM
  TGI: 4.54 µM
